Values of other authors, collected in patent publication US20050119262A1, “Method for preventing or treating an optic neuropathy with a cox-2 inhibitor and an intraocular pressure reducing agent” (Pharmacia Corporation, priority 2003, published 2005).

Conditions: patients with ocular hypertension and glaucoma

Compound: CC(=O)Oc1ccccc1C(=O)O [acetylsalicylic acid]
- effect on IOP: no affect on IOP
